The record followed here is patent publication US20180098969A1, “HODGKIN LYMPHOMA THERAPY” (Purdue Pharmaceutical Products L.P., priority 2016, published 2018).

Experiment [1] concerns L540 cell. Nature of the experiment: Apoptosis, annexin V-FITC and Hoechst double staining. It counts as cell-based, human. As to conditions: 5 μM, 24 h and 48 h. The method, then: (§1) This assay was performed on 7 cell lines (HDLM2 was excluded due to the low number of available cells) at 24 h and 48 h following EDO-S101 treatment (5 μM, DMSO). Control cells were cultured in the same final concentration of DMSO. Only viable cells (using Hoechst staining) were focused on, and all necrotic cells were excluded. Apoptosis was determined using annexin V-FITC and Hoechst (33342) double staining according to the manufacturer's instructions (BD Biosciences). Cell-cycle fractions were determined by Hoechst nuclear staining. Briefly, cells were harvested, washed in PBS, incubated with annexin V-FITC and Hoechst solution for 30 minutes at room temperature. Data were collected using a FACSCalibur flow cytometer (BD Biosciences) and analyzed with FlowJo Version 7.5.5 obtainable from FlowJo, LLC. Results represent the mean value of 3 independent experiments.

Experiment [2] deals with Hodgkin lymphoma cell lines. The experiment is described as above. It counts as cell-based, human. As to conditions: 5 μM, 24 h and 48 h, all cells. On the procedure: as §1
Experiment [3] deals with L428. Nature of the experiment: Clonogenic survival in methylcellulose. It counts as cell-based, human. Conditions: very low doses 0.1 and 0.5 μmol. The method, then:
In all examples, the human Hodgkin lymphoma-derived cell lines L428, L428-c, KMH2, L591, L540, L1236, HDLM2 and SUP-HD were obtained from Dr Steffen Junker (Aarhus University Denmark). All cell lines were cultured in Gibco RPMI 1640 medium supplemented with Glutamax, 10% FBS and antibiotics at 37° C. […] The immunophenotype, P53 status and MSI characterization of the Hodgkin lymphoma cell lines was determined using anti-CD30, CD15, CD20 and CD14 antibodies.
This test was performed on four Hodgkin lymphoma cell lines (L428, L428s, KMH2 and L540). Each was cultured with EDO-S101 at doses of 0, 0.1, 0.5, 1, 10 and 20 μmol in DMSO. The cell lines were cultured in methylcellulose (Stem cell Technologies) at a concentration of 10^5/ml at 37° C. and 5% CO2. The surviving fraction was determined by measuring the viability of colonies generated before and after exposure. Only colonies with more than 50 cells were counted. Each data point represents the average and SD from three independent experiments performed in triplicate.

The subject of experiment [4] is CD14 cells. Nature of the experiment: CD14-positive cells by flow cytometry in xenografted mice. It counts as in vivo, NSG mice. The method, then:
Cells were gated to exclude apoptotic or necrotic cells and sorted into CD30−/CD15− and CD30+ and CD15+/CD30+ fractions by gating on the lowest and highest 5% PE-expressing cells, respectively. Following sorting, the CD30−/CD15− cell fractions were analyzed using a FACScan flow cytometer (Becton Dickinson) and found to be more than 98% pure. For phenotypic analyses of cell lines or sorted cells, cells were prepared as described, and then stained with mouse anti-human CD30-phycoerthrin (PE), CD15-fluorescein isothyocyanate (FITC), CD14-APC-cyanine 7 (Cy7) and CD45-APC (all antibodies from BD PharMingen, San Diego, Calif.). […] Cells were subsequently analysed using a FACS LSRII (Becton Dickinson, Franklin Lakes, N.J.). […]
Novel biomarkers CD68 and CD14 which are expressed by tumour associated macrophages and myeloid derived suppressor cells respectively in the microenvironment have recently been reported to affect the prognosis of Hodgkin lymphoma (Haematologica, 2011 Feb; 96(2): 186-189). The presence of the CD14-positive cells following administration of a single dose of EDO-S101 (60 mg/kg or 80 mg/kg) and after two administrations of EDO-S101 at 60 mg/kg was evaluated using flow cytometry with anti CD14 antibodies.
Background: Flow cytometry measures light scatter and fluorescence of single cells or particles in a stream.

For the compound `Cn1c(CCCCCCC(=O)NO)nc2cc(N(CCCl)CCCl)ccc21` [EDO-S101], the figures for the sensitivity for apoptosis entry in experiment [1] and in experiment [2] were “higher sensitivity” and “high sensitivity”, respectively. Besides, in experiment [3], the clones observed entry is “only macrophagic clones being observed”. The “frequency of CD14 cells” value in experiment [4] (2×60 mg/kg versus single 80 mg/kg) is reported as “higher frequency following treatment with 2×60 mg/kg than treatment with a single dose of 80 mg/kg”; in experiment [4] (treated versus untreated mice), “significantly higher frequency of CD14 cells in untreated mice compared to treated mice”.
